T1: Solute carrier family 22 member 2 (Rattus norvegicus, UniProt Q9R0W2)
T1 sequence (Q9R0W2 whole entry): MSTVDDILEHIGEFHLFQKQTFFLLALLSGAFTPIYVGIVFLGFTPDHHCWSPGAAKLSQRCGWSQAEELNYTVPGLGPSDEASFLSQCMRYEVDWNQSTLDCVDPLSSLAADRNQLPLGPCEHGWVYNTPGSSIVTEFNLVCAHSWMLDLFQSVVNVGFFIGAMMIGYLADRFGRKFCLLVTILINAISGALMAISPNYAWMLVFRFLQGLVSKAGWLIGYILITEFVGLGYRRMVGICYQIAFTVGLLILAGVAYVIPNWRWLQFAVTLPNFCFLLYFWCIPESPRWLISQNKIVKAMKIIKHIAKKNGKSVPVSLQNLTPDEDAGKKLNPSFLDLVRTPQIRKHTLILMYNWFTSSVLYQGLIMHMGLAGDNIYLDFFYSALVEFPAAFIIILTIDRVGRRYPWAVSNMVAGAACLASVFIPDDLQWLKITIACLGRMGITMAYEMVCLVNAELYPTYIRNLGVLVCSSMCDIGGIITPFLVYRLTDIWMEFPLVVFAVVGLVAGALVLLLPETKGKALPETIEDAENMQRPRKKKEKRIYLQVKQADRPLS

T2: Solute carrier family 22 member 1 (Rattus norvegicus, UniProt Q63089)
T2 sequence (Q63089 whole entry): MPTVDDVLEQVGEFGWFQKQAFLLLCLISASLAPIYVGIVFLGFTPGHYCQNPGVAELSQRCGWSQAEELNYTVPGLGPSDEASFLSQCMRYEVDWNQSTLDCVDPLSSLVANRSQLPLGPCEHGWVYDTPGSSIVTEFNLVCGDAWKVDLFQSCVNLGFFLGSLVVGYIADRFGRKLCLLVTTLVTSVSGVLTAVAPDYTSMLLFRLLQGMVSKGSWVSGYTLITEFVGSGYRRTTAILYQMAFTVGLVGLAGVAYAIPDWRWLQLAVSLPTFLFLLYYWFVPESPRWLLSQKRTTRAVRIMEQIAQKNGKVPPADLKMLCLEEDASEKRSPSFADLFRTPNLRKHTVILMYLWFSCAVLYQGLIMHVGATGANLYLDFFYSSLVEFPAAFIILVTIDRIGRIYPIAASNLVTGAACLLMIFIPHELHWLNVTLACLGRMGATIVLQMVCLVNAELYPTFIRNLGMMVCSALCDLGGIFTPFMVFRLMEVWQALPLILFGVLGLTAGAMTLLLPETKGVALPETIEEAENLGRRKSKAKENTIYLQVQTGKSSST

T3: Solute carrier family 22 member 3 (Rattus norvegicus, UniProt O88446)
T3 sequence (O88446 whole entry): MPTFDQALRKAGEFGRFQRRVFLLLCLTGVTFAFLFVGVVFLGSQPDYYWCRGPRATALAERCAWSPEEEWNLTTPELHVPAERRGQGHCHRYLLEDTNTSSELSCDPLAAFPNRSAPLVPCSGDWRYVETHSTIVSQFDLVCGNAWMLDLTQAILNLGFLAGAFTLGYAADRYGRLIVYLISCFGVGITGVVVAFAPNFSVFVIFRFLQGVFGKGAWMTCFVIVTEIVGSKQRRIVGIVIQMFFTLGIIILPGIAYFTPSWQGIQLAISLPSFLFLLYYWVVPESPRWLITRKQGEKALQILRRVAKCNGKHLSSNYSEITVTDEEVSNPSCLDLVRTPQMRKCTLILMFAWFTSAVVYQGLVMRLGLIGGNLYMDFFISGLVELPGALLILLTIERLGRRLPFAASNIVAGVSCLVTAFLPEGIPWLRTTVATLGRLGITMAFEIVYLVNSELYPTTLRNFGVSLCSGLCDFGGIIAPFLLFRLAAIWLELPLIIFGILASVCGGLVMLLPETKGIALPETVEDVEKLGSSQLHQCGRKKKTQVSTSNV

B1: Solute carrier family 22 member 3 (Rattus norvegicus) (protein)
chain: T3 sequence (O88446 whole entry)

What was measured:
[1] = biological target: T1, Solute carrier family 22 member 2; test: TP_TRANSPORTER: inhibition of TEA uptake (TEA: 20 uM) in OCT2-expressing HRPE cells; type: functional, cell-based
[2] = biological target: T2, Solute carrier family 22 member 1; test: TP_TRANSPORTER: inhibition of TEA uptake (TEA: 20 uM, Deoxycorticosterone: 100 uM) in OCT1-expressing HRPE cells; type: functional, cell-based; conditions: human
[3] = biological target: T3, Solute carrier family 22 member 3; test: TP_TRANSPORTER: inhibition of TEA uptake (TEA: 20 uM) in OCT3-expressing HRPE cells; type: functional, cell-based
[4] = biological target: T2, Solute carrier family 22 member 1; test: TP_TRANSPORTER: inhibition of TEA uptake (TEA: 20 uM, Corticosterone: 100 uM) in OCT1-expressing HRPE cells; type: functional, cell-based; conditions: human
[5] = biological target: T3, Solute carrier family 22 member 3; test: TP_TRANSPORTER: inhibition of Dopamine uptake (Dopamine: 0.15 uM, Cocaine: 100 uM) in OCT3-expressing HRPE cells; type: functional, cell-based; conditions: human
[6] = biological target: T2, Solute carrier family 22 member 1; test: TP_TRANSPORTER: inhibition of TEA uptake in OCT1-expressing HRPE cells; type: functional, cell-based; conditions: human
[7] = biological target: T3, Solute carrier family 22 member 3; test: TP_TRANSPORTER: inhibition of MPP+ uptake (MPP+: 1 uM) in OCT3-expressing HRPE cells; type: functional, cell-based
[8] = biological target: T3, Solute carrier family 22 member 3; test: (§1) TP_TRANSPORTER: uptake in OCT3-expressing HRPE cells; type: functional, cell-based; conditions: human
[9] = biological target: T2, Solute carrier family 22 member 1; test: TP_TRANSPORTER: inhibition of TEA uptake (TEA: 20 uM, beta-Estradiol: 100 uM) in OCT1-expressing HRPE cells; type: functional, cell-based; conditions: human
[10] = biological target: T2, Solute carrier family 22 member 1; test: TP_TRANSPORTER: inhibition of TEA uptake (TEA: 20 uM, Testosterone: 100 uM) in OCT1-expressing HRPE cells; type: functional, cell-based; conditions: human
[11] = substrate: C[n+]1ccc(-c2ccccc2)cc1; test: as §1; type: functional, cell-based
[12] = substrate: C[n+]1ccc(-c2ccccc2)cc1; test: TP_TRANSPORTER: uptake (electrogenesis, -50mV) in Xenopus laevis oocytes; type: functional, cell-based, Oocyte

| Molecule | IC50 [1] | IC50 [3] | IC50 [7] | other results |
| --- | --- | --- | --- | --- |
| C[C@]12CC[C@H]3[C@@H](CCC4=CC(=O)CC[C@@]43C)[C@@H]1CC[C@@H]2C(=O)CO [DESOXYCORTICOSTERONE] | 1.9 µM | 8.4 µM |  | Activity [2]: is not an inhibitor [-] |
| NC[C@H](O)c1ccc(O)c(O)c1 [NOREPINEPHRINE] | 11000 µM | 434 µM |  |  |
| C[C@]12C[C@H](O)[C@H]3[C@@H](CCC4=CC(=O)CC[C@@]43C)[C@@H]1CC[C@@H]2C(=O)CO [CORTICOSTERONE] | 4.2 µM | 4.9 µM |  | Activity [4]: is not an inhibitor [-]; Activity [5]: inhibitor [(at a rough estimate) 5 % of control] |
| CC(=O)[C@H]1CC[C@H]2[C@@H]3CCC4=CC(=O)CC[C@]4(C)[C@H]3CC[C@]12C [PROGESTERONE] | 1.6 µM | 10.5 µM |  | Activity [6]: inhibitor [+] |
| NCCc1c[nH]c2ccc(O)cc12 [SEROTONIN] |  |  | 97 µM |  |
| NCCc1ccc(O)c(O)c1 [DOPAMINE] | 2300 µM | 384 µM | 62 µM | Activity [8]: substrate [+] |
| CNCCCN1c2ccccc2CCc2ccccc21 [DESIPRAMINE] |  |  | 68 µM |  |
| CN[C@@H](C)Cc1ccccc1 [METHAMPHETAMINE] |  |  | 248 µM |  |
| C[C@]12CC[C@@H]3c4ccc(O)cc4CC[C@H]3[C@@H]1CC[C@@H]2O [ESTRADIOL] | 84.8 µM | 1.1 µM |  | Activity [9]: is not an inhibitor [-] |
| CC(N)Cc1ccccc1 (stereo unspecified) [AMPHETAMINE] |  |  | 42 µM |  |
| C[C@]12CC[C@H]3[C@@H](CCC4=CC(=O)CC[C@@]43C)[C@@H]1CC[C@@H]2O [TESTOSTERONE] |  |  |  | Activity [10]: is not an inhibitor [-] |
| B1 |  |  |  | Km [11]: 91 µM; Km [12]: 24 µM |

Reference: ChEMBL document CHEMBL2074049, “Identity of the organic cation transporter OCT3 as the extraneuronal monoamine transporter (uptake2) and evidence for the expression of the transporter in the brain” (J Biol Chem, 1998)
